Experiments:
MDA-MB-231 cells = assay: apoptotic cell death, caspase-3 blot after chemotherapeutic agents; assay type: cell-based, human; details: for cell sensitivity to drug (apoptotic cell death, caspase-3) when zDHHC3 is ablated: MDA-MB-231, 25 hr, D3 shRNA vs control shRNA, Camptothecin 2 μM, Gefitinib 50 μM, 5-Fluorouracil 10 μg/ml
Method: Specifically, human breast carcinoma MDA-MB-231 cells were treated with Camptothecin (2 μM), Gefitinib (50 μM), 5-Fluorouracil (10 μg/ml), or DMSO (vehicle control), for 25 hr, lysed, then blotted for caspase-3, to assess apoptotic cell death. C=control shRNA; D3=stable DHHC3 ablation; D3^R=shRNA knockdown cells reconstituted with wild type DHHC3; D3^M=mutant DHHC3 (inactivated by C→S active site mutation).

[1] = system: ZDHHC3-ablated MDA-MB-231 cells; assay: oxidative stress/ROS, CellROX dye, flow cytometry; assay type: cell-based, human; details: for direct and indirect effects of oxidative stress in ZDHHC3-ablated cells: summary statement; for effect on oxidative stress/ROS elevated by ZDHHC3 ablation: ZDHHC3-ablated MDA-MB-231 cells, CellROX
Method: To assess oxidative stress/reactive oxygen species (ROS), control and ZDHHC3-ablated tumor cells were trypsinized and suspended in complete medium. After PBS wash, cells were loaded with 2 μM CellROX dye in complete medium (37° C., 30 min). Cells were then washed twice with IX PBS, incubated in complete media (37° C., 30 min), washed twice again with 1×PBS, and then analyzed by flow cytometry. Similarly, senescence was measured by loading suspended control and ZDHHC3 ablated cells with C12FDG dye (30 min, 37° C.) in complete medium. The C12FDG dye is converted by intracellular β-galactosidase (elevated in senescent cells) to produce fluorescence, which was quantitated by flow cytometry. […] Increased oxidative stress can decrease tyrosine phosphatase activities (Tanner et al., 2011 Antioxid Redox Signal, 15:77-97), which can elevate tyrosine phosphorylation of focal adhesion kinase (FAK) and STAT3 proteins (Carballo et al., 1999 J Biol Chem, 274:17580-6; Ben et al., 2000 IUBMB Life, 50:291-9).

[2] = system: focal adhesion kinase (FAK); assay: FAK tyrosine phosphorylation, immunoprecipitation and western blotting; assay type: cell-based, human; details: control and ZDHHC3-ablated MDA-MB-231 cells, FIG. 2C upper panels
Source text: Increased oxidative stress can decrease tyrosine phosphatase activities (Tanner et al., 2011 Antioxid Redox Signal, 15:77-97), which can elevate tyrosine phosphorylation of focal adhesion kinase (FAK) and STAT3 proteins (Carballo et al., 1999 J Biol Chem, 274:17580-6; Ben et al., 2000 IUBMB Life, 50:291-9).

MCP-1 = MCP-1 secretion (senescence-associated), western blotting; assay type: cell-based, human; details: MDA-MB-231 cells, FIG. 2C bottom panel
Method: Cells were cultured in DMEM and/or RPMI medium (Invitrogen, Grand Island, N.Y.) containing 10% FBS (Sigma, Mo.), HEPES and 1% penicillin-streptomycin (Invitrogen, Grand Island, N.Y.). […] Cultured cells were lysed in 1% Triton X-100, and total protein was quantified using BCA protein estimation kit. Western blotting and relative band intensity densitometry were described previously (Sharma et al., 2012 Cell Mol Life Sci, 69:2233-44).

ZDHHC3-ablated cells = assay: senescence, C12FDG dye (β-galactosidase), flow cytometry; assay type: cell-based, human; details: summary statement
Method: To assess oxidative stress/reactive oxygen species (ROS), control and ZDHHC3-ablated tumor cells were trypsinized and suspended in complete medium. After PBS wash, cells were loaded with 2 μM CellROX dye in complete medium (37° C., 30 min). Cells were then washed twice with IX PBS, incubated in complete media (37° C., 30 min), washed twice again with 1×PBS, and then analyzed by flow cytometry. Similarly, senescence was measured by loading suspended control and ZDHHC3 ablated cells with C12FDG dye (30 min, 37° C.) in complete medium. The C12FDG dye is converted by intracellular β-galactosidase (elevated in senescent cells) to produce fluorescence, which was quantitated by flow cytometry.

DHHC proteins = details: literature: Jennings et al., 2008; cited from earlier work

Row | Compound | cell sensitivity to drug (apoptotic cell death, caspase-3) when zDHHC3 is ablated (MDA-MB-231 cells) | direct and indirect effects of oxidative stress in ZDHHC3-ablated cells [1] | effect on ZDHHC3 ablation-induced FAK tyrosine phosphorylation [2] | MCP-1 upregulation in ZDHHC3-ablated cells (MCP-1) | increased senescence measured by β-galactosidase activity and/or SASP marker MCP-1 (ZDHHC3-ablated cells) | other results
1 | O=c1[nH]cc(F)c(=O)[nH]1 [5-Fu, 5-Fluorouracil] | enhanced |  |  |  |  | 
2 | COc1cc2ncnc(Nc3ccc(F)c(Cl)c3)c2cc1OCCCN1CCOCC1 [Gefitinib] | not enhanced |  |  |  |  | 
3 | CC(C)c1c(C(=O)Nc2ccccc2)c(-c2ccccc2)c(-c2ccc(F)cc2)n1CC[C@@H](O)C[C@@H](O)CC(=O)O [atorvastatin] |  | substantially reversed | substantially prevented | markedly diminished | substantially reversed | 
4 | O=C1C(=Cc2cc([N+](=O)[O-])ccc2O)Sc2ccccc21 [2-(2-hydroxy-5-nitro-benzylidene)-benzo[b]thiophen-3-one] |  |  |  |  |  | palmitoyltransferase activity of all DHHC proteins tested (DHHC proteins): inhibited
5 | CCCCCCCCCCCCCCC(Br)C(=O)O (stereo not drawn) [2-bromopalmitate] |  |  |  |  |  | palmitoyltransferase activity of all DHHC proteins tested (DHHC proteins): inhibited
6 | O=C(O)CCCCC1CCSS1 (stereo not drawn) [α-LA, α-lipoic acid] |  | substantially reversed | substantially prevented | markedly diminished | substantially reversed | effect on oxidative stress/ROS elevated by ZDHHC3 ablation [1]: substantially prevented
7 | CC(=O)N[C@@H](CS)C(=O)O [NAC, N-acetyl cysteine] |  | substantially reversed | substantially prevented | markedly diminished | substantially reversed | effect on oxidative stress/ROS elevated by ZDHHC3 ablation [1]: substantially prevented; effect on oxidative stress/ROS elevated by ZDHHC3 ablation ([1]; listed as N-acetyl cysteine): partial reversal
8 | CC[C@@]1(O)C(=O)OCc2c1cc1n(c2=O)Cc2cc3ccccc3nc2-1 [camptothecin] | enhanced |  |  |  |  | cell sensitivity to drug (caspase-3) with inactive DHHC3 (D3M) compared to fully functional DHHC3 (D3R) (MDA-MB-231 cells; zDHHC3-ablated MDA-MB-231 reconstituted, lane 10 vs lane 9): markedly enhanced
